Values of other authors, collected in patent US20100087382A1, “Inhibitors of Hepatitis C NS3 Protease” (BOEHRINGER INGELHEIM INTERNATIONAL GMBH, priority 2007, published 2010).
Read-outs that look alike come from different tables or passages of the source.

Experiments:
hepatitis C virus [1] = settings: two day clinical trial, patients infected with hepatitis C virus
hepatitis C virus [2] = settings: 28- and 14-day clinical trials, in combination with pegylated interferon with or without ribavirin, during treatment

| SMILES | viral load in patients (hepatitis C virus [1]) | viral load in patients (hepatitis C virus [2]) |
| --- | --- | --- |
| COc1ccc2c(O[C@@H]3C[C@H]4C(=O)N[C@]5(C(=O)O)C[C@H]5/C=C\CCCCC[C@H](NC(=O)OC5CCCC5)C(=O)N4C3)cc(-c3csc(NC(C)C)n3)nc2c1 [BILN 2061] | effective in rapidly reducing viral loads |  |
| CCC[C@H](NC(=O)[C@@H]1[C@H]2CCC[C@H]2CN1C(=O)[C@@H](NC(=O)[C@@H](NC(=O)c1cnccn1)C1CCCCC1)C(C)(C)C)C(=O)C(=O)NC1CC1 [VX-950] |  | rapidly decreased to undetectable levels |
